Experimental data taken from US7973024B2, “24-sulfoximine vitamin D3 compounds” (Cyctochroma Inc., priority 2002, dated 2011).

Experiments:
Format in all cases: cell-based
MCF-7 cells = experiment: [3H]-thymidine proliferation assay with MCF-7 cells; settings: together with calcitriol, three days, [3H]-thymidine 6 h
Description: 1. Preparation of Cell Suspension • When MCF-7 cells were 70-80% confluent, aspirated growth media. Washed the cells with 1×PBS. Trypsinized with trypsin-EDTA from the plate, collected cells from the tissue culture flask, centrifuged (500×g, 5 min) and resuspended in growth media.
2. Cell Plating. • Counted the cells and adjusted the cell density to 25,000/ml. Added 200 μl per well in a 96 well plate. Incubated plate for 24 h at 37° C. in a humidified atmosphere plus 5% CO2. Aspirated used media and replaced with 150 μl per well with proliferation media.
(§1) 3. Substrate Addition. • Added 25 μl of 1α,25(OH)2D3 (final concentration 10^−6 M, 10^−7 M, 10^−8 M, 10^−9 M, 10^−10 M, 10^−11 M) into each designated well. Added 25 μl of substrate (final concentration 10^−7 M, 5×10^−8 M, 10^−8 M or 10^−9 M) into each designated well. Incubated plates for 3 days at 37° C. in a humidified atmosphere plus 5% CO2.
4. ^3H-Thymidine incorporation. • Added ^3H-thymidine at 0.02 μCi per well and incubated at 37° C. in a humidified atmosphere plus 5% CO2 for 6 h.
(§2) 5. Plate Harvesting. • Aspirated all media and washed cells with 1×PBS. Trypsinized cells for 30 min at 37° C. in a humidified atmosphere plus 5% CO2. Harvested cells onto a 96 well filter plate (Millipore) using a Tomtec Cell Harvestor, according to manufacturers instructions.
(§3) 6. Scintillation Counting. • Added 25 μl of scintillation fluid per well. Counted the plate using a scintillation counter.

SCC-25 cells = experiment: [3H]-thymidine proliferation assay with SCC-25 cells; settings: together with calcitriol, three days, [3H]-thymidine 6 h
Description: 1. Preparation of Cell Suspension • When SCC-25 cells were 70-80% confluent, aspirated media. Washed the cells with 1×PBS. Trypsinized with trypsin-EDTA from the plate, collected cells from the tissue culture flask, centrifuged (500×g, 5 min) and resuspended in media.
2. Cell Plating. • Counted the cells and adjusted the cell density to 10,000/ml. Added 200 μl per well in a 96 well plate. Incubated plate for 24 h at 37° C. in a humidified atmosphere plus 5% CO2. Aspirated used media and replaced with 150 μl per well with media.
as §1, with “Compound” for “Substrate”, “10^−6M,” for “10^−6 M,”, “M,” for “M, 10^−9”
4. ^3H-Thymidine Incorporation. • Added ^3H-thymidine at 0.02 μCi per well and incubated at 37° C. in a humidified atmosphere plus 5% CO2 for 6 h.
as §2, §3

[1] = test system: normal human epidermal keratinocytes (NHEK); experiment: Human epidermal keratinocyte proliferation assay; settings: together with calcitriol, three days, [3H]-thymidine 18 h
Description: 1. HEK Cell Media • Supplemented KGM media with additional reagents provided in the bullet kit as per supplier's instructions. • Added calcium chloride to final concentration of 0.3 mM.
2. Calcitriol Dilutions • Stock: Calcitriol (1 mM)
3. Substrate Dilutions • Stock: substrate (0.1 mM)
1. Cell Culture • Thawed one vial of HEK cells containing at least 500 K, and divided into 5 25 cm^2 flasks with 5 ml HEK cell media. 24 h later, removed media and replenished with 5 ml fresh media. Changed media again 48 h later.
2. Preparation of Cell Suspension • On the day of the assay, washed the monolayer of HEK cells once with 1×PBS buffer (provided in reagent pack) and then trypsinized for 5 min at 37° C. Added trypsin neutralizing solution (provided in reagent pack). Collected cells into tube, centrifuged cells (500×g, 5 min) and resuspended in HEK cell media. Counted cells and adjusted density to 150,000 cells/ml. Diluted cells further 1:30 with HEK cell media.
2. Cell Plating • Added 150 μl of cell suspension to appropriately labelled wells of a 96-well plate. Incubated plate for 48 h at 37° C. in a humidified atmosphere containing 5% CO2 for adherence of cells to wells.
3. […]
4. Cell Harvesting and Counting • Added 0.2 μCi/well of [^3H]-thymidine in 20 μl of HEK cell media to each well. Incubated plates for 18 h at 37° C. in a humidified atmosphere containing 5% CO2. Aspirated media and washed with 1×PBS. Trypsinize-cells for 30 min at 37° C. in a humidified atmosphere containing 5% CO2. Harvested cells onto filter plates using Tomtec cell harvester as per manufacturer's instructions. Added 25 μl scintillation fluid per well. Measured radioactivity using a scintillation counter. All values were normalized for background.

Compound	inhibition of proliferation of MCF-7 cells (MCF-7 cells)	inhibition of proliferation of SCC-25 cells (SCC-25 cells)	inhibition of proliferation of normal human epidermal keratinocytes (NHEK) [1]
C=C1/C(=C\C=C2/CCC[C@]3(C)[C@@H]([C@H](C)CCS(=N)(=O)c4ccccc4)CC[C@@H]23)C[C@@H](O)C[C@@H]1O (single isomer, unassigned) [I(a)]	act to inhibit the proliferation	act to inhibit the proliferation	act to inhibit the proliferation
C=C1/C(=C\C=C2/CCC[C@]3(C)[C@@H]([C@H](C)CCS(=O)(=NC)c4ccccc4)CC[C@@H]23)C[C@@H](O)C[C@@H]1O (single isomer, unassigned) [I(e)]	act to inhibit the proliferation	act to inhibit the proliferation	act to inhibit the proliferation
C=C1/C(=C\C=C2/CCC[C@]3(C)[C@@H]([C@H](C)CCS(=O)(=NC)c4ccccc4)CC[C@@H]23)C[C@@H](O)C[C@@H]1O (single isomer, unassigned) [I(g)]	act to inhibit the proliferation	act to inhibit the proliferation	
C[C@H](CCS(=N)(=O)c1ccccc1)[C@H]1CC[C@H]2/C(=C/C=C3C[C@@H](O)C[C@H](O)C3)CCC[C@]12C (single isomer, unassigned) [I(i), 24-Phenyl Sulfoximine 19-Nor-Vitamin-D3]	act to inhibit the proliferation	act to inhibit the proliferation	act to inhibit the proliferation
